These are literature values, as cited in US20030170318A1, “Fluoride compositions and uses thereof” (priority 2000, published 2003).

The subject of one series is Ras/RasGAP complex. The conditions noted are these: fluoride salt added to mixed Ras and GAP; free fluoride needed in solution.
The next series deals with mutant RhoGAP. The note with it: arginine to alanine mutant, in the presence of aluminum fluoride.
Series [1] has as its system osteosarcoma cell line UMR 106. The note with it: 0.5 mM fluoride, UMR 106 cultures.
The test system of series [2] is human leukemia (HL-60) cells.
A further series concerns Drosophila. The note with it: mutation induced by Trenimon and 1-phenyl-3,3-dimethyltriazene.
For series [3] the following is noted: children.
The next series relates to normal cells. The note with it: pre, simultaneous and post-treatments; Trenimon-induced chromosomal aberrations.

On to `[F-].[F-].[Mg+2]` [magnesium fluoride], for which the Ras/RasGAP complex formation entry in the series with Ras/RasGAP complex is “readily formed”.
For the compound aluminum fluoride, in the series on Ras/RasGAP complex, the Ras/RasGAP complex formation entry is “readily formed”. The “hydrolysis of RhoGTP to RhoGDP by mutant RhoGAP” value in the series with mutant RhoGAP is given as “as effective as normal RhoGAP”.
For `[Be+2].[F-].[F-]` [beryllium fluoride, reference compound], the Ras/RasGAP complex formation entry with Ras/RasGAP complex is “readily formed”.
Turning to `F` [fluoride], the “toxic blood plasma fluoride level” value is “about 15 μM”. Moreover, in series [1], the apoptosis entry is recorded as “induction of apoptosis” and the cell proliferation entry is “decrease in cell proliferation”. Besides, the cell death entry in series [2] is “causes cell death”. For the same compound, in series [2] (cleaves poly(ADP-ribose) polymerase), the “caspase-3 activation leading to apoptosis” value was “activation of caspase-3”. For the same compound, the antimutagenic effect entry in the series with Drosophila was “strong antimutagenic effect”. Also, the “fluoride retained of all fluoride consumed” value in series [3] is “twenty”.
`[F-].[Na+]` [sodium fluoride]: the “frequency of undamaged mitosis” value in the series with normal cells is listed as “significantly enhanced”.
